{"source": "patent US7582681B2", "about": "“Synergistic mixtures of 1,2-alkane diols” (Symrise GmbH & Co. KG, priority 2002, dated 2009)", "type_in_all_cases": "cell-based", "key": {"[1]": {"tested_on": "Aspergillus niger ATCC 16404", "assay": "Test for adequate preservation (European Pharmacopea), 1,2-diols and 1,2-diol mixtures in O/W emulsion", "settings": "for germ count A. niger: 3% diol(s) in O/W emulsion; for reduction in the number of colony forming units (CFU) to the 0 value: Aspergillus niger, dosage of 3%, 28 days", "description": "A test for adequate preservation was carried out in accordance with the European Pharmacopea. The test thus consists of the contamination of the formulation, if possible in its final ratio, with a prescribed inoculum of suitable microorganisms, storage of the inoculated formulation at a specific temperature, taking of samples from the vessel at specific intervals and determination of the number of microorganisms in the samples taken in this way. The preserving properties are adequate if, under the conditions of the test, there is a distinct reduction or optionally no increase in the germ count in the inoculated formulations after the prescribed times at the prescribed temperatures. Experimental details of the test procedure are described in the European Pharmacopea (ISBN 3-7692-2768-9; 2001 supplement to the 3rd Edition, page 421-422, chapter 5.1.3). The initial germ count (CFU/g; “0” value) was in the range of 240,000 to 300,000 in the various test series. For the tests for adequate preservation, (a) potentially synergistically active mixtures taken into account and (b), for comparison purposes, the corresponding unmixed 1,2-diols were incorporated in O/W emulsions. […] The variation in the total concentration of 1,2-diols or 1,2-diol mixtures in the O/W emulsions was compensated for by increasing or reducing the water content, so that otherwise identical formulations always comprised 100 parts by weight in total. […] The Kull equation enables the pure substances and the active compound mixtures prepared therefrom to be compared in respect of their antimicrobial activity. With this equation the so-called synergy index (SI), which is a measure for a synergistic activity, but also for a possible antagonistic activity, of a mixture having an antimicrobial action, is determined. A synergistic effect is evident if the SI value determined is less than 1. On the other hand, if an SI of precisely 1 is calculated, there is a pure additive effect of two substances having an antimicrobial action. In the case of an SI value greater than 1, on the other hand, there is a (frequently undesired) antagonistic effect."}, "[2]": {"tested_on": "Epidermophyton floccosum CBS 55384", "assay": "MIC, agar dilution method", "settings": "CBS55384, Mueller-Hinton agar, 18 h at 36° C.", "description": "(§1) Petri dishes 9.0 cm in diameter were charged with 13.5 ml freshly prepared Mueller-Hinton agar (Merck, Ref. 1.05437 or Wilkins-Chalgren agar boullion, Oxoid, Ref. CM 643, supplemented with log agar-agar/liter) kept liquid at 50° C., to which the various concentrations of the diluted samples were added in 10% (V/V)=1.5 ml. Mueller-Hinton agar that contained 3% Tween80 (Merck, Ref. 8.22 187) was used for the test germ Malassezia furfur. In each case 5 ml of the samples were diluted in distilled water and made up to 10 ml. The further test concentrations of the particular dilution series, which were prepared in the form of geometric series, were prepared by progressive 1:2 dilution of this batch with distilled water. […] Two agar plates were poured per test concentration and nutrient medium. After solidification and drying (approx. 1 h at 37° C.), the test plates were inoculated in point form with, in each case, 1 μl of the test germ suspensions listed below. To check purity and identity the bacteria that grow aerobically (Brevibacterium epidermidis, Corynebacterium xerosis, Staphylococcus epidermidis) were [lacuna] on Columbia blood agar (BioMérieux, Ref. 43049). The mould Aspergillus niger, the yeast Candida albicans and the two skin fungi Trichophyton mentagrophytes and Epidermophyton floccosum were cultured on Sabouraud agar (BioMérieux, Ref. 43555). Malassezia furfur was cultured on Sabourad HLT agar with disinhibitors (addition of 3% Tween80: 1%; lecithin: 0.3%; histidine: 0.1%; Merck, Ref. 1.18368). Propionibacterium acnes was cultured on Schaedler agar (BioMérieux, Ref. 43273). Further details on the test germs can be taken from Table 5. For preparation of the other test germ suspensions, the test strains were cultured on the abovementioned solid nutrient medium, harvested using sterile swabs and taken up or diluted in such an amount of Mueller-Hinton broth that the turbidity of the suspensions corresponded to McFarland standard 0.5. All test germ suspensions with the exception of Propionibacterium acnes were diluted again 1:10 with sterile broth and the germ count thereof was determined by the surface method using a Spiralometer (results: see Table 5). The MIC (minimum inhibitory concentration) was regarded as the lowest concentration of active compound at which macroscopically there is no growth. Minimal, barely visible growth or few small individual colonies were evaluated as inhibition."}, "[3]": {"tested_on": "Trichophyton mentagrophytes CBS 26379", "assay": "MIC, agar dilution method", "settings": "CBS26379, Mueller-Hinton agar, 72 h at 30° C.", "description": "as §1"}, "[4]": {"tested_on": "Malassezia furfur DSM 6171", "assay": "MIC, agar dilution method", "settings": "DSM6171, Mueller-Hinton agar + 3% Tween 80, 72 h at 30° C.", "description": "as §1"}}}
{"smiles": "CCCCCCC(O)CO", "note": "(stereo not drawn) [OC3, 1,2-octanediol]", "values": [{"measurement": "germ count A. niger", "setting": "[1]; 0′-count (initial germ count)", "result": "260,000 CFU/ml"}, {"measurement": "germ count A. niger", "setting": "[1]; 24 h", "result": "55,000 CFU/ml"}, {"measurement": "germ count A. niger", "setting": "[1]; 48 h", "result": "6,000 CFU/ml"}, {"measurement": "germ count A. niger", "setting": "[1]; 4 d", "result": "6,000 CFU/ml"}, {"measurement": "germ count A. niger", "setting": "[1]; 7 d", "result": "1,100 CFU/ml"}, {"measurement": "germ count A. niger", "setting": "[1]; 14 d", "result": "1,000 CFU/ml"}, {"measurement": "germ count A. niger", "setting": "[1]; 14 d, listed as 1,2-octanediol", "result": 1000, "unit": "CFU/ml"}, {"measurement": "germ count A. niger", "setting": "[1]; 28 d", "result": 100, "unit": "CFU/ml"}, {"measurement": "reduction in the number of colony forming units (CFU) to the 0 value", "setting": "[1]", "result": "did not enable a reduction in the number of colony forming units (CFU) to the desired 0 value"}, {"measurement": "MIC", "setting": "[2]", "result": 3120, "unit": "µg/mL"}, {"measurement": "MIC", "setting": "[3]", "result": 1560, "unit": "µg/mL"}, {"measurement": "MIC", "setting": "[4]", "result": 50000, "unit": "µg/mL"}]}
{"smiles": "CCCCC(O)CO", "note": "(stereo not drawn) [HE3, 1,2-hexanediol]", "values": [{"measurement": "germ count A. niger", "setting": "[1]; 0′-count (initial germ count)", "result": "260,000 CFU/ml"}, {"measurement": "germ count A. niger", "setting": "[1]; 24 h", "result": "120,000 CFU/ml"}, {"measurement": "germ count A. niger", "setting": "[1]; 48 h", "result": "120,000 CFU/ml"}, {"measurement": "germ count A. niger", "setting": "[1]; 4 d", "result": "120,000 CFU/ml"}, {"measurement": "germ count A. niger", "setting": "[1]; 7 d", "result": "80,000 CFU/ml"}, {"measurement": "germ count A. niger", "setting": "[1]; 14 d", "result": "28,000 CFU/ml"}, {"measurement": "germ count A. niger", "setting": "[1]; 14 d, listed as 1,2-hexanediol", "result": 28000, "unit": "CFU/ml"}, {"measurement": "germ count A. niger", "setting": "[1]; 28 d", "result": 800, "unit": "CFU/ml"}, {"measurement": "reduction in the number of colony forming units (CFU) to the 0 value", "setting": "[1]", "result": "did not enable a reduction in the number of colony forming units (CFU) to the desired 0 value"}, {"measurement": "MIC", "setting": "[2]", "result": 6250, "unit": "µg/mL"}, {"measurement": "MIC", "setting": "[3]", "result": 6300, "unit": "µg/mL"}, {"measurement": "MIC", "setting": "[4]", "result": 12500, "unit": "µg/mL"}]}
